The text below walks through data of patent publication US11613527B2, “Enzyme inhibitors” (KalVista Pharmaceuticals Limited, priority 2019, dated 2023).

The structures appear in SMILES notation. ≈ marks a conversion by molar mass, not a printed value.

The IC50 is the concentration needed to halve the response being measured. In general, solubility refers to the concentration that dissolves in the medium under given conditions. High values mean a readily soluble substance, low ones a poorly soluble substance. The Cmax is the maximum level reached in the sampled fluid or tissue.

One series concerns the target Human KLK1 (Homo sapiens (Human), UniProt P06870). The series can be described thus: Determination of the IC50 for KLK1 (fluorogenic substrate H-DVal-Leu-Arg-AFC). In kind it is biochemical. The method in brief: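 Inhibition read as initial rate via optical absorbance change at 410 nm, giving IC50. Reactions combined human KLK1, the substrate H-DVal-Leu-Arg-AFC and varied compound concentrations at 25° C.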

A short description of series [1]: Solubility after 24 hrs in Fasted State Simulated Intestinal Fluid (FaSSIF). The series is classed as physicochemical. The note with it: Fasted State Simulated Intestinal Fluid (FaSSIF), thermodynamic from solid, 24 hrs at 37° C., nominal concentration 1 mg/mL (as free base). The method in brief: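 Compound at nominal 1 mg/mL (as free base) in freshly prepared FaSSIF, shaken 24 h at 37 °C, ~500 rpm. After centrifugation at 15,000 g for 10 min at 37 °C, dissolved concentration measured by LCMS.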

In another series the target is Human FXIa (Homo sapiens (Human), UniProt P03951). The series can be described thus: Determination of the % inhibition for FXIa (fluorogenic substrate Z-Gly-Pro-Arg-AFC; 40 μM or IC50). The series is classed as biochemical. The method in brief:
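Inhibition measured from initial reaction rate, followed as absorbance change at 410 nm, with substrate Z-Gly-Pro-Arg-AFC at 25 °C. Compound tested at a single 40 μM dose for percent inhibition, or across several concentrations to derive IC50 against human FXIa.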

Another series has as its target Human plasma kallikrein (Homo sapiens (Human), UniProt P03952). The series is described as follows: Determination of the IC50 for plasma kallikrein (fluorogenic substrate H-DPro-Phe-Arg-AFC). The series is classed as biochemical. The note with it: class symbols A-D, read-out: IC50 (human PKal). In a few lines: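 IC50 values come from initial rates, monitored as the change in absorbance at 410 nm, of residual enzyme activity. Test compound was present at various concentrations with the fluorogenic substrate H-DPro-Phe-Arg-AFC, and the reaction was run at 25° C.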

The nature of series [2]: Pharmacokinetics following a single oral dose in male Sprague-Dawley rats. The note with it: rat, nominal 5 mg/kg in 10% DMSO/10% cremophor/80% SWFI, plasma. The series is classed as in vivo. As for the experimental part: Pharmacokinetic studies of the compounds in Table 14 were performed to assess the pharmacokinetics following a single oral dose in male Sprague-Dawley rats. Two rats were given a single po dose of 5 mL/kg of a nominal 1 mg/mL (5 mg/kg) composition of test compound in 10% DMSO/10% cremophor/80% SWFI vehicle. Following dosing, blood samples were collected over a period of […]. Sample times were 5, 15 and 30 minutes then 1, 2, 4, 6, 8 and 12 hours. Following collection, blood samples were centrifuged and the plasma fraction analysed for concentration of test compound by LCMS.

Human KLK1, sequence (P06870 25-262): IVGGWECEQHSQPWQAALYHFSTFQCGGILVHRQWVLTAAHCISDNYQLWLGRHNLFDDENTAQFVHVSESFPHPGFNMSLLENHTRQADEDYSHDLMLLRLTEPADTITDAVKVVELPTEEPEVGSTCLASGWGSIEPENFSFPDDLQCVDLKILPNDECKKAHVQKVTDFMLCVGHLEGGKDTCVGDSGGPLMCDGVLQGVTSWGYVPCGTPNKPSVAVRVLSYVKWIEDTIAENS
Human plasma kallikrein, sequence (P03952 391-638): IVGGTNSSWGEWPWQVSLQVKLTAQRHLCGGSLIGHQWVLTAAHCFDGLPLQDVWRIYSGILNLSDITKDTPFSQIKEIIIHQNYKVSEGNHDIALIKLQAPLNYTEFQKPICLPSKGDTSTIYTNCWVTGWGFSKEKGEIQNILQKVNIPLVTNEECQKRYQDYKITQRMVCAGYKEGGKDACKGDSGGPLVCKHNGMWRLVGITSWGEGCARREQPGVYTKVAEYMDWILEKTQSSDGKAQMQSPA
Human plasma kallikrein, sequence (P03952 20-390 partner): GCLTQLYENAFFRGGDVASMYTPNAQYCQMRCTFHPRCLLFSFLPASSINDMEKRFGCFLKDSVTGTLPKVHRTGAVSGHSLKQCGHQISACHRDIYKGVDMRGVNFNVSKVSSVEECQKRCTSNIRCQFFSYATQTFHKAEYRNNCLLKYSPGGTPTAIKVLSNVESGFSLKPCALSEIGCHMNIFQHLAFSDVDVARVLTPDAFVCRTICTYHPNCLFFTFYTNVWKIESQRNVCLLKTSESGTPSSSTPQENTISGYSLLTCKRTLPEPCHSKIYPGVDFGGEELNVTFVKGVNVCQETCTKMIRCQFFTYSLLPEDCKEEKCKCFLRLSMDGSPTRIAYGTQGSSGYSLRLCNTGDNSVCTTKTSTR
Human FXIa, sequence (P03951 388-625): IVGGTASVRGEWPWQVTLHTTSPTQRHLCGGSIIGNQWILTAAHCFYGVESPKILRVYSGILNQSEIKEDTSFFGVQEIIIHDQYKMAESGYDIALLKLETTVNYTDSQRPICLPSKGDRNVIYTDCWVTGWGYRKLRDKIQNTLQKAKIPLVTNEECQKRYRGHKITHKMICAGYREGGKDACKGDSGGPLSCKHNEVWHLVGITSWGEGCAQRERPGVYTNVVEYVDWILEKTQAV
Human FXIa, sequence (P03951 19-387 partner): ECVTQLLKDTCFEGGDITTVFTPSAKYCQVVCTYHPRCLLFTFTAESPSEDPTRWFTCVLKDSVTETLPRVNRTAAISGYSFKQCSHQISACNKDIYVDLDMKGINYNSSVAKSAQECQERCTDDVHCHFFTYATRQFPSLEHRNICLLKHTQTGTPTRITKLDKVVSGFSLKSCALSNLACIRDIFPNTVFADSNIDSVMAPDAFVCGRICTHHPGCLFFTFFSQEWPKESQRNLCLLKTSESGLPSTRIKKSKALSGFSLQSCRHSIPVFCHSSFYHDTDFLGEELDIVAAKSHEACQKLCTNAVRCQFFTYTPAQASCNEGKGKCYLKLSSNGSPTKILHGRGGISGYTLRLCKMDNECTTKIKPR

With `COCc1nn(Cc2ccc3c(c2)CN(C)CC3)cc1C(=O)NCc1c(-n2cc(C(F)F)nn2)ccc(OC)c1F` [Example 1, N-({6-[4-(difluoromethyl)-1,2,3-triazol-1-yl]-2-fluoro-3-methoxyphenyl}methyl)-3-(methoxymethyl)-1-[(2-methyl-3,4-dihydro-1H-isoquinolin-7-yl)methyl]pyrazole-4-carboxamide], the IC50 against Human KLK1 is more than 40 µM; at Human FXIa, more than 40 µM; at Human plasma kallikrein, less than 10 nM. The molecule also had a solubility at 24 h in series [1] of 930 µg/mL (≈ 1630 µM). Besides, in series [2], the maximum concentration (Cmax) was 88 ng/mL.

`COCc1nn(Cc2ccc3c(c2)CN(C)CC3)cc1C(=O)NCc1c(-n2cc(C)nn2)ccc(OC)c1F` [Example 2, N-{[2-Fluoro-3-methoxy-6-(4-methyl-1,2,3-triazol-1-yl)phenyl]methyl}-3-(methoxymethyl)-1-[(2-methyl-3,4-dihydro-1H-isoquinolin-7-yl)methyl]pyrazole-4-carboxamide]: the IC50 is more than 40 µM at Human KLK1, more than 40 µM against Human FXIa and less than 10 nM at Human plasma kallikrein. Moreover, in series [1], the solubility at 24 h was 710 µg/mL (≈ 1330 µM). In addition, the Cmax in series [2] turned out to be 134 ng/mL.

`COCc1nn(Cc2ccc3c(c2)CN(C)CC3)cc1C(=O)NCc1c(-n2cnc(C(F)(F)F)n2)ccc(OC)c1F` [Example 13, N-({2-fluoro-3-methoxy-6-[3-(trifluoromethyl)-1,2,4-triazol-1-yl]phenyl}methyl)-3-(methoxymethyl)-1-[(2-methyl-3,4-dihydro-1H-isoquinolin-7-yl)methyl]pyrazole-4-carboxamide]: the figures for the IC50 at Human KLK1, on Human FXIa and at Human plasma kallikrein were more than 40 µM, more than 40 µM and less than 10 nM, respectively. Moreover, in series [1], the solubility at 24 h was 860 µg/mL (≈ 1460 µM). In series [2], this molecule displayed a Cmax of 88 ng/mL.

Turning to `COCc1nn(Cc2ccc3c(c2)CN(C)CC3)cc1C(=O)NCc1c(-n2cnc(C(F)F)n2)ccc(OC)c1F` [Example 15, N-({6-[3-(difluoromethyl)-1,2,4-triazol-1-yl]-2-fluoro-3-methoxyphenyl}methyl)-3-(methoxymethyl)-1-[(2-methyl-3,4-dihydro-1H-isoquinolin-7-yl)methyl]pyrazole-4-carboxamide], the results for the IC50 at Human KLK1, at Human FXIa and on Human plasma kallikrein were more than 40 µM, more than 40 µM and less than 10 nM, respectively. Moreover, the solubility at 24 h in series [1] is more than 1000 µg/mL. Besides, the Cmax in series [2] is 78 ng/mL.

With `COCc1nn(Cc2ccc3c(c2)CN(C(C)C)CC3)cc1C(=O)NCc1c(-n2cnc(C(F)F)n2)ccc(OC)c1F` [Example 23, N-({6-[3-(difluoromethyl)-1,2,4-triazol-1-yl]-2-fluoro-3-methoxyphenyl}methyl)-1-[(2-isopropyl-3,4-dihydro-1H-isoquinolin-7-yl)methyl]-3-(methoxymethyl)pyrazole-4-carboxamide], the IC50 against Human KLK1 is more than 40 µM; on Human FXIa, more than 40 µM; at Human plasma kallikrein it was less than 10 nM. The molecule also gave a solubility at 24 h in series [1] of 870 µg/mL (≈ 1460 µM). This molecule yielded a Cmax in series [2] of 20 ng/mL.

As to `COCc1nn(Cc2ccc3c(c2)CN(C(C)C)CC3)cc1C(=O)NCc1c(-n2ccc(C#N)n2)ccc(OC)c1F` [Example 24, N-{[6-(3-cyanopyrazol-1-yl)-2-fluoro-3-methoxyphenyl]methyl}-1-[(2-isopropyl-3,4-dihydro-1H-isoquinolin-7-yl)methyl]-3-(methoxymethyl)pyrazole-4-carboxamide], the IC50 against Human KLK1 is more than 40 µM; against Human FXIa, 23.8 µM; at Human plasma kallikrein, less than 10 nM. This molecule also had a solubility at 24 h in series [1] of 730 µg/mL (≈ 1280 µM). The concentration in series [2] peaked (Cmax) at 24 ng/mL.

Turning to `COCc1nn(Cc2ccc3c(c2)CCN(C(C)C)C3)cc1C(=O)NCc1c(-n2cc(C)nn2)ccc(OC)c1F` [Example 37, N-{[2-fluoro-3-methoxy-6-(4-methyl-1,2,3-triazol-1-yl)phenyl]methyl}-1-[(2-isopropyl-3,4-dihydro-1H-isoquinolin-6-yl)methyl]-3-(methoxymethyl)pyrazole-4-carboxamide], the IC50 was more than 40 µM against Human KLK1, more than 40 µM on Human FXIa and less than 10 nM at Human plasma kallikrein. In series [1], this molecule displayed a solubility at 24 h of more than 1000 µg/mL. The molecule also returned a Cmax in series [2] of 38 ng/mL.

For the molecule `CCN1CCc2cc(Cn3cc(C(=O)NCc4c(-n5cc(C)nn5)ccc(OC)c4F)c(COC)n3)ccc2C1` [Example 38, 1-[(2-ethyl-3,4-dihydro-1H-isoquinolin-6-yl)methyl]-N-{[2-fluoro-3-methoxy-6-(4-methyl-1,2,3-triazol-1-yl)phenyl]methyl}-3-(methoxymethyl)pyrazole-4-carboxamide], the IC50 was more than 40 µM against Human KLK1, more than 40 µM against Human FXIa and less than 10 nM on Human plasma kallikrein. This molecule also registered a solubility at 24 h in series [1] of 740 µg/mL (≈ 1350 µM). This molecule gave a Cmax in series [2] of 51 ng/mL.

Molecule `COCc1nn(Cc2ccc3c(c2)CN(C(C)C)C3)cc1C(=O)NCc1c(-n2cc(C)nn2)ccc(OC)c1F` [Example 55, N-{[2-Fluoro-3-methoxy-6-(4-methyl-1,2,3-triazol-1-yl)phenyl]methyl}-1-[(2-isopropyl-1,3-dihydroisoindol-5-yl)methyl]-3-(methoxymethyl)pyrazole-4-carboxamide] showed a solubility at 24 h in series [1] of more than 1000 µg/mL. This molecule returned a Cmax in series [2] of 136 ng/mL.

Turning to `COc1ccc(-n2cc(C)nn2)c(CNC(=O)c2cncc(Cc3ccc4c(c3)CN(C)CC4)c2)c1F` [Example 161, N-{[2-fluoro-3-methoxy-6-(4-methyl-1,2,3-triazol-1-yl)phenyl]methyl}-5-[(2-methyl-3,4-dihydro-1H-isoquinolin-7-yl)methyl]pyridine-3-carboxamide], the IC50 is more than 40 µM at Human KLK1, more than 40 µM against Human FXIa and less than 10 nM on Human plasma kallikrein. In series [1], this molecule came in with a solubility at 24 h of more than 1000 µg/mL.

In the case of `COCc1nn(Cc2ccc3nc(C)ccc3c2)cc1C(=O)NCc1c(-n2cnnn2)ccc(OC)c1F` [RC2, N-{[2-fluoro-3-methoxy-6-(1,2,3,4-tetrazol-1-yl)phenyl]methyl}-3-(methoxymethyl)-1-[(2-methylquinolin-6-yl)methyl]pyrazole-4-carboxamide, reference compound], the concentration for half-maximal inhibition (IC50) at Human KLK1 is more than 40 µM; against Human FXIa, 0.218 µM; at Human plasma kallikrein it was less than 10 nM. In series [1], this molecule had a solubility at 24 h of 20 µg/mL (≈ 38.7 µM).

As for `COCc1nn(Cc2ccc3ncccc3c2)cc1C(=O)NCc1c(-n2cnnn2)ccc(OC)c1F` [RC3, N-{[2-fluoro-3-methoxy-6-(1,2,3,4-tetrazol-1-yl)phenyl]methyl}-3-(methoxymethyl)-1-(quinolin-6-ylmethyl)pyrazole-4-carboxamide, reference compound], the values for the IC50 against Human KLK1, against Human FXIa and at Human plasma kallikrein were more than 40 µM, 1.92 µM and less than 10 nM, respectively. The solubility at 24 h in series [1] is 20 µg/mL (≈ 39.8 µM).

With `COCc1nn(Cc2cnc(N3CCCC3)nc2)cc1C(=O)NCc1c(-n2cc(C(F)F)nn2)ccc(OC)c1F` [RC7, N-({6-[4-(difluoromethyl)-1,2,3-triazol-1-yl]-2-fluoro-3-methoxyphenyl}methyl)-3-(methoxymethyl)-1-{[2-(pyrrolidin-1-yl)pyrimidin-5-yl]methyl}pyrazole-4-carboxamide, reference compound], the IC50 against Human KLK1 was more than 40 µM; against Human FXIa, 0.559 µM; on Human plasma kallikrein, less than 10 nM. In series [1], this molecule yielded a solubility at 24 h of 10 µg/mL (≈ 17.5 µM).
